Results published in US10507247B2, “Optical probes for matrix metalloproteinases” (The University Court of the University of Edinburgh, priority 2015, dated 2019).
Primed or numbered codes have the meaning given here. Where no end group is shown, it is not given here. [ ]: non-standard residue; d: D form. The star is where a group is joined. 5FAM = O=C1OC2(c3ccc(O)cc3Oc3cc(O)ccc32)c2ccc(C(=O)*)cc21; MethylRed = CN(C)c1ccc(/N=N/c2ccccc2C(=O)*)cc1; PEG2′ = PEG spacer unit (glycol linker); Nle = CCCC[C@H](N)C(=O)O; Ahx = NCCCCCC(=O)O; βAla = NCCC(=O)O

What was measured:
[1] = tested on: MMP; test: Activation of probe variants by MMP in vitro; type: biochemical
Description: The selectivity of the probes, together with further probes AMF-14b, SVC-030 (both defined in Table 6 below) and SVC-068 (defined in Table 4 below), to detect MMP over elastase, another proteinase relevant in lung disease, was tested and the results for all probes are shown in FIG. 2.
Variants consisting of D-amino acids at the recognition site sequence with or without blocking PEG units were also synthesised and assessed.
(§1) The enzyme assays were run in a 384-well format on a PCR opaque microplate (Thermo Scientific). All dilutions and reactions were prepared in MMP buffer (50 mM Tris, 10 mM CaCl2, 0.15M NaCl, 0.05% Brij-35, pH 7). Proteolytic activity was determined by calculating the fold change in fluorescence over background signal provided by the corresponding dilution of the probe and/or inhibitors with exogenous enzymes using a-multiwell plate fluorimeter (Synergy H1 Hybrid Reader, BioTek instruments Ltd) at excitation/emission 485/528 nm. Recombinant human MMPs (Catalytic domain MMP-1, -2, -3, -7, -8, -9, -10, -11, -12, -13 (Enzo Life Sciences) and Full-length MMP-2, -9, -12 and -13 (Merck/Millipore)) were used at 30 nM. Pro-MMP-13 (R & D Systems) was activated by incubating with 1 mM 4-aminophenylmercunc acetate (APMA) for 2 hrs at 37° C. Human neutrophil elastase (Elastase Product Company, used at 2.5 ug/ml), neutrophil lysate (lysed human neutrophils), and recombinant human Thrombin (Sigma-Aldrich, used at 5 U/ml), Plasmin (Sigma-Aldrich, used at 30 nM) and Factor Xa (Sigma-Aldrich, used at 0.5 μM) were used to identify the lead molecular probe sequences. For inhibition assays, enzyme and inhibitor were pre-incubated for 1 hr at 37° C. before the addition of molecular probe.

[2] = tested on: MMP-13; test: Enzyme assay, fold change in probe fluorescence over background with MMP-13; type: biochemical, human; conditions: different probe scaffolds (monomer, dendrimers); MMP-13 52 kDa
Description: (§2) Enzyme specificity of the lead probes with exogenous enzymes was tested using a multiwell plate fluorimeter at excitation/emission 485/528 nm (Table 3). Recombinant human catalytic domain MMPs-1, -2, -3, -7, -8, -9, -10, -11, -12, -13 were used at 30 nM. Cleavage site for each sequence is indicated in italics.
(§3) The different compounds were also evaluated according to the fold change in fluorescent signal in presence of MMP-9 and MMP-13, and the results are shown in Table 7. From this comparison, the FRET dendrimers comprising SEQ ID NO.1 and SEQ ID NO.7 (AMF-106 and SVC-186) together with the 9Dendrimer comprising SEQ ID NO.7 (SVC-196) were chosen for further evaluation. These dendrimers are shown in FIG. 7, probe A (AMF-106), probe B (SVC-186) and probe C (SVC-196).
as §1

[3] = tested on: MMP-9; test: Enzyme assay, fold change in probe fluorescence over background with MMP-9; type: biochemical, human; conditions: for MMP-9 (83 kDa), fold change in fluorescent signal: different probe scaffolds (monomer, dendrimers); for MMP-9 (39.0 kDa), fold change in fluorescence over background: FRET monomers, recombinant human catalytic domain MMP at 30 nM, ex/em 485/528 nm
Description: A library of probes (listed in Table 2 below) containing FAM (Carboxyfluorescein) as the fluorophore (donor) and MethylRed (MR) as the quencher (acceptor) and a variety of peptide sequences was synthesized by manual standard solid-phase Fmoc peptide chemistry (described below).
as §2, §3, §1

[4] = tested on: MMPs-1, -2, -3, -7, -8, -9, -10, -11, -12, -13, Thrombin, Plasmin and Factor Xa; test: Enzyme specificity of the FRET branched probes with exogenous enzymes (FIG. 8); type: biochemical, human; conditions: probe 10 μM
Description: FIG. 8. Enzyme specificity of the FRET branched probes A, B and C. Data represents the average fold change in fluorescence over background signal provided by probe (10 μM) with exogenous enzymes using a multiwell plate fluorimeter (Synergy H1 Hybrid Reader, BioTek instruments Ltd) at excitation/emission 485/528 nm. Recombinant human catalytic domain MMPs-1, -2, -3, -7, -8, -9, -10, -11, -12, -13 were used at 30 nM. Recombinant human Thrombin, Plasmin and Factor Xa were used at 5 U/ml, 30 nM, 0.5 μM, respectively.
Three selected probes (A: AMF-106, B: SVC-186 B, and C: SVC-196) were evaluated in vitro in a new experiment including other members of the MMP family (MMPs-1, -2, -3, -7, -8, -9, -10, -11, -12, -13) as well as Thrombin, Plasmin and Factor Xa, and the results are shown in FIG. 8. […] The plasmin cleavage site was identified and attempts to make a resistant version replacing with D-aa in these positions were unsuccessful.
as §1

[5] = molecular target: T1, Thrombin (Homo sapiens, UniProt P00734); test: Enzyme assay, fold change in probe fluorescence with Thrombin; type: biochemical; conditions: recombinant human Thrombin 5 U/ml; ex/em 485/528 nm
T1 construct: purchased Sigma-Aldrich
Description: as §2, §1

[6] = tested on: MMP-2; test: Enzyme assay, fold change in probe fluorescence over background with MMP-2; type: biochemical; conditions: FRET monomers; recombinant human catalytic domain MMP at 30 nM; ex/em 485/528 nm
Sequence of MMP-2 (P08253 with tags, fused parts or gaps DEL222-396 limits assumed): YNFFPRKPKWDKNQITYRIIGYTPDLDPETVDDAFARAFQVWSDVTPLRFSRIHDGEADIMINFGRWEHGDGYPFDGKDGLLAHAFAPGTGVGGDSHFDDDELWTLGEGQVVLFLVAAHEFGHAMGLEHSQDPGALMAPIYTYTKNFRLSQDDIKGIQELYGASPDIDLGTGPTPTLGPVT
Description: as §2, §1

[7] = molecular target: MMP-13 (Homo sapiens, UniProt P45452); test: Enzyme assay, fold change in probe fluorescence over background with MMP-13; type: biochemical; design: purchased Enzo Life Sciences (catalytic domain); Merck/Millipore (full-length); conditions: FRET monomers; recombinant human catalytic domain MMP at 30 nM; ex/em 485/528 nm
Description: as §2, §3, §1

[8] = molecular target: T2, MMP-12 (Homo sapiens, UniProt P39900); test: Enzyme assay, fold change in probe fluorescence over background with MMP-12; type: biochemical; conditions: FRET monomers; recombinant human catalytic domain MMP at 30 nM; ex/em 485/528 nm
T2 construct: Recombinant human catalytic domain MMPs-1, -2, -3, -7, -8, -9, -10, -11, -12, -13 were used at 30 nM; purchased Enzo Life Sciences
T2 sequence (P39900 106-263 limits assumed): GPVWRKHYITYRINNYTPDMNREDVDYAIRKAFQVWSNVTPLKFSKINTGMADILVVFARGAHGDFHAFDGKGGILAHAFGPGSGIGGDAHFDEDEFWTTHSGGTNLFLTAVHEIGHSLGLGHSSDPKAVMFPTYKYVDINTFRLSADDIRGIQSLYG
Description: as §2, §1

Substance | intensity upon activation by MMP [1] | MMP-13 (52 kDa), fold change in fluorescent signal [2] | MMP-9 (83 kDa), fold change in fluorescent signal [3] | signal-to-noise (fold change above the background) [4] | selectivity for MMP-2/9 ([4]; MMPs 30 nM, Thrombin 5 U/ml, Plasmin 30 nM, Factor Xa 0.5 μM) | Inflammatory mediators: Thrombin, fold change in fluorescence over background [5] | MMP-2 (20.3 kDa), fold change in fluorescence over background [6] | MMP-9 (39.0 kDa), fold change in fluorescence over background [3] | MMP-13 (20.4 kDa), fold change in fluorescence over background [7] | MMP-12 (20.3 kDa), fold change in fluorescence over background [8] | recognition of the cleavable sequence by MMP ([1]; FIG. 2)
Ac-PEG2-PFGNleKβA-K[K(FAM)2]-PEG2-k-PEG2-k-3 probe elements [SVC-01-198] | much lower intensity |  |  |  |  |  |  |  |  |  | 
FAM-Ahx-G-P-K-G-L-K-G-3 probe elements ({5FAM-Ahx}-GPKGLKG; also: three probe elements on a scaffold) [TWB140] |  | 1.47 | 1.06 |  |  |  |  |  |  |  | 
FAM-K(FAM)-PEG2-PFGNleKβA-K(FAM)-PEG2-k-PEG2-k-3 probe elements ({5FAM-K(FAM)-PEG2′}-PFG[Nle]K[βAla]-{K(FAM)-PEG2′-code k-PEG2′-code k}; also: three probe elements on a scaffold) [SVC-196] |  | 11.80 | 3.33 | lower signal-to-noise | poor selectivity |  |  |  |  |  | 
FAM-K(FAM)-PEG2-PFGNleKβA-PEG2-k-PEG2-k-3 probe elements [SVC-189] |  | 7.11 | 2.92 |  |  |  |  |  |  |  | 
FAM-PEG2-G-P-K-G-I-K-G-K(MR)-NH2 ({5FAM-PEG2′}-GPKGIKGK(MethylRed)-NH2) [SVC-26] |  |  |  |  |  | 1.37 | 2.10 | 4.22 | 9.33 | 1.54 | 
FAM-PEG2-G-P-K-G-L-K-G-K(MR)-NH2 [SVC-24] |  |  |  |  |  | 1.31 | 1.98 | 3.50 | 9.30 | 2.34 | 
FAM-PEG2-G-P-K-G-Nle-K-G-K(MR)-NH2 [SVC-27] |  |  |  |  |  | 1.48 | 2.70 | 4.53 | 11.75 | 1.46 | 
FAM-PEG2-P-Cha-G-M-F-G-K(MR)-NH2 [SVC-15] |  |  |  |  |  | 0.94 | 3.27 | 5.89 | 11.75 | 2.45 | 
FAM-PEG2-P-Cha-G-M-H-G-K(MR)-NH2 [SVC-21] |  |  |  |  |  | 0.97 | 4.01 | 7.53 | 12.93 | 3.05 | 
FAM-PEG2-P-Cha-G-M-K-G-K(MR)-NH2 [SVC-22] |  |  |  |  |  | 1.02 | 4.24 | 8.21 | 14.88 | 2.61 | 
FAM-PEG2-P-Cha-G-M-K-βA-K(MR)-NH2 [SVC-20] |  |  |  |  |  | 1.00 | 5.22 | 9.61 | 15.9 | 3.21 | 
FAM-PEG2-P-Cha-G-M-W-G-K(MR)-NH2 [SVC-17] |  |  |  |  |  | 1.05 | 2.59 | 5.07 | 6.5 | 2.59 | 
FAM-PEG2-P-Cha-G-M-Y(Me)-G-K(MR)-NH2 [SVC-18] |  |  |  |  |  | 0.97 | 2.54 | 4.94 | 10.04 | 2.15 | 
FAM-PEG2-P-Cha-G-M-Y-G-K(MR)-NH2 [SVC-19] |  |  |  |  |  | 1.04 | 4.07 | 6.90 | 11.26 | 2.87 | 
FAM-PEG2-P-F-G-I-K-βA-K(MR)-NH2 [AMF-24] |  |  |  |  |  | 0.96 | 1.59 | 2.29 | 5.05 | 1.65 | 
FAM-PEG2-P-F-G-L-K-βA-K(MR)-NH2 [AMF-23] |  |  |  |  |  | 0.89 | 1.87 | 2.50 | 6.41 | 3.03 | 
FAM-PEG2-P-F-G-M(S = O)-K-βA-K(MR)-NH2 [SVC-068] |  |  |  |  |  |  |  |  |  |  | not recognised by MMP
FAM-PEG2-P-F-G-M-K-βA-K(MR)-NH2 [SVC-16] |  |  |  |  |  | 0.99 | 3.11 | 5.21 | 13.57 | 1.88 | 
FAM-PEG2-P-F-G-Nle-K-βA-K(MR)-K-K-PEG2-PEG2-NH2 [AMF-92] |  | 19.30 | 4.75 |  |  |  |  |  |  |  | 
FAM-PEG2-P-F-G-Nle-K-βA-K(MR)-NH2 [AMF-25] |  |  |  |  |  | 0.96 | 1.88 | 2.02 | 5.27 | 1.53 | 
FAM-PEG2-PFGNleKβA-PEG2-k-PEG2-k-3 probe elements [SVC-188] |  | 1.80 | 1.41 |  |  |  |  |  |  |  | 
MR-K(Ac)-PEG2-GPKGLKG-K(FAM)-PEG2-k-PEG2-k-PEG2-k-NH2 [AMF-111] |  | 10.57 | 3.66 |  |  |  |  |  |  |  | 
